Data from patent US20220332774A1, “THERAPEUTIC MITOCHONDRIAL PEPTIDES” (priority 2019, published 2022).

Legend:
C2C12 Cells = test: Glucose utilization in cultured C2C12 cells (myotubes); assay type: cell-based, mouse; conditions: glucose concentration in medium relative to untreated cells; 5 μM peptide, 22 h
Method: The effect of the peptides on glucose homeostasis can be assessed using an assay to monitor glucose utilization by cultured cells such as mouse myotubes. Peptide arrays were initially prepared as 5 mM stock in DMSO and diluted to 0.5 mM in H2O; peptides were used at a final concentration of 5 μM (0.1% DMSO). Calculations for peptide concentrations based on approximate molecular weight of 2000 Daltons. C2C12 mouse muscle cell line was purchased from Millipore Sigma (Saint Louis, Mo.). C2C12 cells were seeded in standard medium (DMEM/low glucose (1 g/L)+10% Fetal Bovine Serum+antibiotics) at 7,500 cells/well on 96-well plates and grown to confluence at 37° C. in a humidified atmosphere of 5% CO2/95% air. Three days after plating the medium was removed and with Differentiation Medium (DMEM/low glucose (1 g/L)+2% Horse Serum+antibiotics) added. The cultures were placed at 37° C. in a humidified atmosphere of 5% CO2/95% air for 5 days with partially replacement of medium daily. After 5 days of differentiation, the medium was removed from myotube cultures and replaced with Assay Medium (DMEM/low glucose (1 g/L)+antibiotics). Culture were placed at 37° C. in a humidified atmosphere of 5% CO2/95% air for 5 h. Following the 5 h incubation the medium was removed and fresh Assay Medium containing compounds was added; 5 μM peptide or 1 mM metformin as a potent stimulator of glucose utilization. Cells were incubated for 22 h at 37° C. in a humidified atmosphere of 5% CO2/95% air. Following 22 h incubation, conditioned medium from each well was transferred to a fresh 96-well plate. Glucose concentrations in the medium were determined using a Glucose Assay kit (Abcam; Cambridge, Mass.) according to the manufacturer's instructions; absorbance measured using a Cytation 3 plate reader at 570 nm (BioTek, Winooski, Vt.). Untreated cells were used as reference for basal glucose utilization. Absorbance values were expressed as percent control activity relative to untreated treated cells for 5 μM peptide. The relative standard deviation from plate to plate of untreated control was <10%. […] Data presented are representative values from 2-3 independent experiments with each data point performed in triplicate in each independent experiment.

3T3-L1 Mouse Adipocytes = test: Free fatty acid levels in cultured 3T3-L1 mouse adipocytes (isoproterenol stimulated); assay type: cell-based; conditions: free fatty acid in medium; 5 μM peptide, 20-22 h pre-incubation then 3 h with 0.1 nM isoproterenol; isoproterenol alone = 100%
Method: The effect of the peptides on fatty acid metabolism can be assessed using an assay to monitor free fatty acid levels produced by cultured cells such as mouse adipocytes. Peptide arrays were initially prepared as 5 mM stock in DMSO and diluted to 0.5 mM in H2O; peptides were used at a final concentration of 5 μM (0.1% DMSO). Calculations for peptide concentrations based on approximate molecular weight of 2000 Daltons. […] Mouse 3T3-L1 cells purchased from ZenBio (Research Triangle Park, NC) were seeded at 3,000 cells per well in 96-well plates in Pre-adipocyte Medium (Zen-Bio) and grown to confluence at 37° C. in a humidified atmosphere of 5% CO2/95% air. Two days after confluence, cells were placed in Adipocyte Differentiation Medium (Zen-Bio) and cultured for three additional days at 37° C. in a humidified atmosphere of 5% CO2/95% air. The culture medium was then replaced with Adipocyte Maintenance Medium (Zen-Bio) and the cells maintained for an additional 9 days at 37° C. in a humidified atmosphere of 5% CO2/95% air with partial medium replacement every other day. Following 12 days of differentiation, medium was replaced Adipocyte Maintenance Medium without insulin and the cultures placed at 37° C. in a humidified atmosphere of 5% CO2/95% air. On day 13 of differentiation, test peptides were added directly to each well (without replacing the medium) at a final concentration of 5 μM in 0.1% DMSO and incubated for 20-22 hours at 37° C. in a humidified atmosphere of 5% CO2/95% air. […] Cells were incubated for 3 hours in Assay Buffer (Zen-Bio) at 37° C. in a humidified atmosphere of 5% CO2/95% air. Following 3 h incubation, conditioned medium from each well was transferred to a fresh 96-well plate. Free fatty acid concentrations in the medium were determined using a Free Fatty Acid Assay kit (Zen-Bio) according to the manufacturer's instructions; absorbance was measured using a Cytation 3 plate reader at 540 nm (BioTek, Winooski, Vt.). Treatment with 0.1 nM isoproterenol alone was used as the free fatty acid level stimulatory control. Absorbance values were expressed as percent control activity relative to 0.1 nM isoproterenol alone treated cells, 100%. The relative standard deviation of the isoproterenol control was <10%. Insulin at 0.25 nM was used as a potent control for decreasing free fatty acid levels. […] Data presented are representative values from 2 independent experiments with each data point performed in triplicate in each independent experiment.

H4-IIE Cells = test: Glucose production in cultured H4-IIE cells; assay type: cell-based, rat; conditions: glucose concentration in medium relative to untreated cells; 5 μM peptide, 24 h
Method: The effect of the peptides on glucose homeostasis can be assessed using an assay to monitor glucose production by cultured cells such as rat hepatocytes. Peptide arrays were initially prepared as 5 mM stock in DMSO and diluted to 0.5 mM in H2O; peptides were used at a final concentration of 5 μM (0.1% DMSO). Calculations for peptide concentrations based on approximate molecular weight of 2000 Daltons. H4-IIE rat hepatic cell line was purchased from American Type Culture Collection (Manassas, Va.). H4-IIE cells were seeded in standard medium (DMEM/high glucose+10% Fetal Bovine Serum+antibiotics) at 100,000 cells/well on 96-well plates and allowed to adhere overnight at 37° C. in a humidified atmosphere of 5% CO2/95% air. 24 h after seeding, the medium was removed, cells were rinsed with glucose free DMEM, and the medium replaced with Glucose Production Medium (glucose free DMEM+2 mM sodium pyruvate+10 mM sodium lactate+antibiotics). The cultures were placed at 37° C. in a humidified atmosphere of 5% CO2/95% air overnight. The next morning, the medium was removed and fresh Glucose Production Medium containing compounds was added; 5 uM peptide or 0.5-1 nM insulin as a potent inhibitor of glucose production. Cells were incubated for 24 h at 37° C. in a humidified atmosphere of 5% CO2/95% air. Following 24 h incubation, conditioned medium from each well was transferred to a fresh 96-well plate. Glucose concentrations in the medium were determined using a Glucose Assay kit (Abcam; Cambridge, Mass.) according to the manufacturer's instructions; absorbance measured using a Cytation 3 plate reader at 570 nm (BioTek, Winooski, Vt.). Untreated cells were used as reference for maximal glucose production. Absorbance values were expressed as percent control activity relative to untreated treated cells for 5 μM peptide. The relative standard deviation from plate to plate of untreated control was <25%. […] Glucose levels for 0.5-1 nM insulin treatment were <5% of the untreated control value. Data are presented as representative values from 2-3 independent experiments with each data point performed in triplicate in each independent experiment.

37 (MGLLEWLLCWHLLGRIINWWA) [compound 37]
Percent of Control Activity (C2C12 Cells): 109% | Percent of Isoproterenol Control Activity (3T3-L1 Mouse Adipocytes): 106% | Percent of Control Activity (H4-IIE Cells): 103%

38 (MGLWLVCWVL) [compound 38]
Percent of Control Activity (C2C12 Cells): 108% | Percent of Isoproterenol Control Activity (3T3-L1 Mouse Adipocytes): 103% | Percent of Control Activity (H4-IIE Cells): 111%

39 (MGNIIRAWCGEGCL) [compound 39]
Percent of Control Activity (C2C12 Cells): 107% | Percent of Isoproterenol Control Activity (3T3-L1 Mouse Adipocytes): 99% | Percent of Control Activity (H4-IIE Cells): 114%

40 (MGSPPPAGSKKVVL) [compound 40]
Percent of Control Activity (C2C12 Cells): 109% | Percent of Isoproterenol Control Activity (3T3-L1 Mouse Adipocytes): 95% | Percent of Control Activity (H4-IIE Cells): 109%

41 (MGSSRINPDPSPS) [compound 41]
Percent of Control Activity (C2C12 Cells): 109% | Percent of Isoproterenol Control Activity (3T3-L1 Mouse Adipocytes): 99% | Percent of Control Activity (H4-IIE Cells): 108%

42 (MGSSRLAVLCPPLHGQVNFTG) [compound 42]
Percent of Control Activity (C2C12 Cells): 107% | Percent of Isoproterenol Control Activity (3T3-L1 Mouse Adipocytes): 106% | Percent of Control Activity (H4-IIE Cells): 112%

43 (MGVGMEWGLLLRRGR) [compound 43]
Percent of Control Activity (C2C12 Cells): 101% | Percent of Isoproterenol Control Activity (3T3-L1 Mouse Adipocytes): 103% | Percent of Control Activity (H4-IIE Cells): 112%

44 (MGVKFFTLST) [compound 44]
Percent of Control Activity (C2C12 Cells): 103% | Percent of Isoproterenol Control Activity (3T3-L1 Mouse Adipocytes): 112% | Percent of Control Activity (H4-IIE Cells): 103%

45 (MHGELPWVVN) [compound 45]
Percent of Control Activity (C2C12 Cells): 108% | Percent of Isoproterenol Control Activity (3T3-L1 Mouse Adipocytes): 98% | Percent of Control Activity (H4-IIE Cells): 107%

46 (MHHMKHPIIC) [compound 46]
Percent of Control Activity (C2C12 Cells): 104% | Percent of Isoproterenol Control Activity (3T3-L1 Mouse Adipocytes): 98% | Percent of Control Activity (H4-IIE Cells): 106%

47 (MHKHYYNKHPHHYNLP) [compound 47]
Percent of Control Activity (C2C12 Cells): 103% | Percent of Isoproterenol Control Activity (3T3-L1 Mouse Adipocytes): 96% | Percent of Control Activity (H4-IIE Cells): 107%

48 (MHKRLSPIYYSHRYLPDKRL) [compound 48]
Percent of Control Activity (C2C12 Cells): 104% | Percent of Isoproterenol Control Activity (3T3-L1 Mouse Adipocytes): 91% | Percent of Control Activity (H4-IIE Cells): 101%

49 (MHLVFSSGGYARDSIA) [compound 49]
Percent of Control Activity (C2C12 Cells): 108% | Percent of Isoproterenol Control Activity (3T3-L1 Mouse Adipocytes): 87% | Percent of Control Activity (H4-IIE Cells): 104%

50 (MHQSCKPEMKTFFQGQI) [compound 50]
Percent of Control Activity (C2C12 Cells): 99% | Percent of Isoproterenol Control Activity (3T3-L1 Mouse Adipocytes): 100% | Percent of Control Activity (H4-IIE Cells): 106%

51 (MIEMGASFCHV) [compound 51]
Percent of Control Activity (C2C12 Cells): 103% | Percent of Isoproterenol Control Activity (3T3-L1 Mouse Adipocytes): 89% | Percent of Control Activity (H4-IIE Cells): 111%

52 (MITVPAHKGMAMA) [compound 52]
Percent of Control Activity (C2C12 Cells): 104% | Percent of Isoproterenol Control Activity (3T3-L1 Mouse Adipocytes): 92% | Percent of Control Activity (H4-IIE Cells): 107%
